Measurements published in article PMC4685510, “A Cell Biologist’s Field Guide to Aurora Kinase Inhibitors” (Frontiers in Oncology, 2015).
Several values for one entry are separate records, joined by “and”; a condition that tells them apart may be missing. Equal entries are not always repeated. Where two headings read alike, the source gives them in different places.

Assays:
Assay in all cases: biochemical
Format in all cases: biochemical
[1] = molecular target: 363 human kinases (including Aurora A/B/C) (Homo sapiens, UniProt Q05397); conditions: FAK/PTK2, [ATP] 50 µM; for remaining activity at 0.1 µM: 100 nM; for remaining activity at 0.1 µM / remaining activity at 0.5 µM: read-out: % Enzyme Activity (relative to DMSO controls)
Chain of 363 human kinases (including Aurora A/B/C) (Homo sapiens, UniProt Q05397) (Q05397 whole entry): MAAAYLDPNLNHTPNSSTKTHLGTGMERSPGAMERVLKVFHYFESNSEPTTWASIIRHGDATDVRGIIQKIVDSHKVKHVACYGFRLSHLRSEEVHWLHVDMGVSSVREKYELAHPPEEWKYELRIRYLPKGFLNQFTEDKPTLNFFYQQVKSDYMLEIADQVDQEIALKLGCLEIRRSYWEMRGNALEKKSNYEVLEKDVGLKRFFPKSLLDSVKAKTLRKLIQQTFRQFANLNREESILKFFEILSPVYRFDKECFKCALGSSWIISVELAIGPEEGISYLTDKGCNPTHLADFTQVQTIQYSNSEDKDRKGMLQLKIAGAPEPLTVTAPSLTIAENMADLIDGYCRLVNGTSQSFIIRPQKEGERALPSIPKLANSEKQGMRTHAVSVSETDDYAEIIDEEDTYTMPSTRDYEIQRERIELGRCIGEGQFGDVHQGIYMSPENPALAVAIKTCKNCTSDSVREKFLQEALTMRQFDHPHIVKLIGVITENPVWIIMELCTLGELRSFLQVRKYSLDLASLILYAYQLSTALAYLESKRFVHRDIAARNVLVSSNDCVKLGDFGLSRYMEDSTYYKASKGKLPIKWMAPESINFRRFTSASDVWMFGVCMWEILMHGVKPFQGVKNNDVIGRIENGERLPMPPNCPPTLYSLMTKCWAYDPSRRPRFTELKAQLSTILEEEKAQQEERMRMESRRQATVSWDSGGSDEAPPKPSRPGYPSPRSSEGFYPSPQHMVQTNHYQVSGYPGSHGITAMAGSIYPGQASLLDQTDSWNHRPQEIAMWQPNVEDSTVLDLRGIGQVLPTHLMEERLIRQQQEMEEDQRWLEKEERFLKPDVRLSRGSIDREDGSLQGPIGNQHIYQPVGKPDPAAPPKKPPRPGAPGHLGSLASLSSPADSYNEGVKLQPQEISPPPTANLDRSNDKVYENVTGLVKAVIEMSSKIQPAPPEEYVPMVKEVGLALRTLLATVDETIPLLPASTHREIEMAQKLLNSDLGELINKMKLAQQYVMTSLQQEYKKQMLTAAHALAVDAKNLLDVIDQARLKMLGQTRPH
From the text: (§1) However, the Aurora A/B selectivity ratios derived from our in vitro and in vivo data can be compared to prioritize inhibitors.

[2] = molecular target: 363 human kinases (including Aurora A/B/C) (Homo sapiens, UniProt Q86V86); conditions: PIM3; for remaining activity at 0.1 µM: 100 nM; for remaining activity at 0.1 µM / remaining activity at 0.5 µM: read-out: % Enzyme Activity (relative to DMSO controls)
From the text: as §1

[3] = molecular target: 363 human kinases (including Aurora A/B/C) (Homo sapiens, UniProt Q9Y2H1); conditions: STK38L/NDR2; for remaining activity at 0.1 µM: 100 nM; for remaining activity at 0.1 µM / remaining activity at 0.5 µM: read-out: % Enzyme Activity (relative to DMSO controls)
Chain of 363 human kinases (including Aurora A/B/C) (Homo sapiens, UniProt Q9Y2H1) (Q9Y2H1 whole entry): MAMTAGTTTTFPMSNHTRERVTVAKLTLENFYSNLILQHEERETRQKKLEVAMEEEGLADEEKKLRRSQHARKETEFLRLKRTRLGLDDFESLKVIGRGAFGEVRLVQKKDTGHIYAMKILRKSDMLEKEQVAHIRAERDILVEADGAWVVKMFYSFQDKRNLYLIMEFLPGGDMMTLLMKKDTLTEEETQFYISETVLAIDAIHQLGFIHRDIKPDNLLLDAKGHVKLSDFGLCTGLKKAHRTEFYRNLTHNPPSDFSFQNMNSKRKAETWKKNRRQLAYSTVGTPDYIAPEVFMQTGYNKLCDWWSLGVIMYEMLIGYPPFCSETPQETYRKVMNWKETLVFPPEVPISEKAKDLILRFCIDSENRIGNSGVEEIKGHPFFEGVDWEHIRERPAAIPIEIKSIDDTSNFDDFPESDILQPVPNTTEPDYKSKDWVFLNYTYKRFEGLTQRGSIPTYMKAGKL
From the text: as §1

[4] = molecular target: 363 human kinases (including Aurora A/B/C) (Homo sapiens, UniProt P42685); conditions: FRK/PTK5; for remaining activity at 0.1 µM: 100 nM; for remaining activity at 0.1 µM / remaining activity at 0.5 µM: read-out: % Enzyme Activity (relative to DMSO controls)
From the text: as §1

[5] = molecular target: 363 human kinases (including Aurora A/B/C) (Homo sapiens, UniProt P05129); conditions: PKCg; for remaining activity at 0.1 µM: 100 nM; for remaining activity at 0.1 µM / remaining activity at 0.5 µM: read-out: % Enzyme Activity (relative to DMSO controls)
From the text: as §1

[6] = molecular target: 363 human kinases (including Aurora A/B/C) (Homo sapiens, UniProt Q15349); conditions: RSK3; for remaining activity at 0.1 µM: 100 nM; for remaining activity at 0.1 µM / remaining activity at 0.5 µM: read-out: % Enzyme Activity (relative to DMSO controls)
From the text: as §1

[7] = molecular target: 363 human kinases (including Aurora A/B/C) (Homo sapiens, UniProt Q02779); conditions: MLK2/MAP3K10; for remaining activity at 0.1 µM: 100 nM; for remaining activity at 0.1 µM / remaining activity at 0.5 µM: read-out: % Enzyme Activity (relative to DMSO controls)
From the text: as §1

[8] = molecular target: 363 human kinases (including Aurora A/B/C) (Homo sapiens, UniProt O75116); conditions: ROCK2; for remaining activity at 0.1 µM: 100 nM; for remaining activity at 0.1 µM / remaining activity at 0.5 µM: read-out: % Enzyme Activity (relative to DMSO controls)
Chain of 363 human kinases (including Aurora A/B/C) (Homo sapiens, UniProt O75116) (O75116 whole entry): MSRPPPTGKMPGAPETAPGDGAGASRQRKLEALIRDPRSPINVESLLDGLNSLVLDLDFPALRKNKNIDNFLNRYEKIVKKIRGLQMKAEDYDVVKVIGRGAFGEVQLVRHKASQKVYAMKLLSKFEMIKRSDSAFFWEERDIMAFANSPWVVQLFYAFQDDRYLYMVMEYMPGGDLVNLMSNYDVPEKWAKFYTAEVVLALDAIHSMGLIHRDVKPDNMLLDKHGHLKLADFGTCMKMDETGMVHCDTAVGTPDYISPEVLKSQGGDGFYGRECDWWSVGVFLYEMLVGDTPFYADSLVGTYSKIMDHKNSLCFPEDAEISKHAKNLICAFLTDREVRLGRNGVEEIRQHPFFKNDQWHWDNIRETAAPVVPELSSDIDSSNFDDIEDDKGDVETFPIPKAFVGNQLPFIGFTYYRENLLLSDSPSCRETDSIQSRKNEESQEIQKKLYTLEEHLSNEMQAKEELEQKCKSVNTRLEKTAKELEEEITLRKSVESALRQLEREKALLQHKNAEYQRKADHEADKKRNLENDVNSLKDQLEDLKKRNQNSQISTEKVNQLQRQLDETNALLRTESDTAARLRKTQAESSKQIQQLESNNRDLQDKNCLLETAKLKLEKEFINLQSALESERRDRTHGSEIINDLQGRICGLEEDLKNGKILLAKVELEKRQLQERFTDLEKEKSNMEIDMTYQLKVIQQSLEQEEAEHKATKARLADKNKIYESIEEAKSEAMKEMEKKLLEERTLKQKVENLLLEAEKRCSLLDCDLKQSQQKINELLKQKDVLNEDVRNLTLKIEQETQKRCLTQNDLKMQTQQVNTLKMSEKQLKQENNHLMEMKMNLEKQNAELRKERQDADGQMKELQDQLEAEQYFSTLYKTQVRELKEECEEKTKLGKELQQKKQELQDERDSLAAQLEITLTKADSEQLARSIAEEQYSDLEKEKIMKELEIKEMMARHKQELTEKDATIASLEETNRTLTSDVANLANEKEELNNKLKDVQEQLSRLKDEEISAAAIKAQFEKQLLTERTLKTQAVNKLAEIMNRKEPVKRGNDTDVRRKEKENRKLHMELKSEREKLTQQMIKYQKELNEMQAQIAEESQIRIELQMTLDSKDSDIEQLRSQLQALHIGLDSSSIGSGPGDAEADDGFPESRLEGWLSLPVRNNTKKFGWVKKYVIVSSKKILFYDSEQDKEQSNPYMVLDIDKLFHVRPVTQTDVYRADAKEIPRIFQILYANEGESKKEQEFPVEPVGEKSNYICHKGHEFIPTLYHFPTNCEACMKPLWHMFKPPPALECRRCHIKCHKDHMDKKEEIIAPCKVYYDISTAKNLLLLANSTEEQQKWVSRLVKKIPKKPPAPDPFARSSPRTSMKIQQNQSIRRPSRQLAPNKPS
From the text: as §1

[9] = molecular target: 363 human kinases (including Aurora A/B/C) (Homo sapiens, UniProt P09769); conditions: FGR, [ATP] 50 µM; for remaining activity at 0.1 µM: 100 nM; for remaining activity at 0.1 µM / remaining activity at 0.5 µM: read-out: % Enzyme Activity (relative to DMSO controls)
Chain of 363 human kinases (including Aurora A/B/C) (Homo sapiens, UniProt P09769) (P09769 whole entry): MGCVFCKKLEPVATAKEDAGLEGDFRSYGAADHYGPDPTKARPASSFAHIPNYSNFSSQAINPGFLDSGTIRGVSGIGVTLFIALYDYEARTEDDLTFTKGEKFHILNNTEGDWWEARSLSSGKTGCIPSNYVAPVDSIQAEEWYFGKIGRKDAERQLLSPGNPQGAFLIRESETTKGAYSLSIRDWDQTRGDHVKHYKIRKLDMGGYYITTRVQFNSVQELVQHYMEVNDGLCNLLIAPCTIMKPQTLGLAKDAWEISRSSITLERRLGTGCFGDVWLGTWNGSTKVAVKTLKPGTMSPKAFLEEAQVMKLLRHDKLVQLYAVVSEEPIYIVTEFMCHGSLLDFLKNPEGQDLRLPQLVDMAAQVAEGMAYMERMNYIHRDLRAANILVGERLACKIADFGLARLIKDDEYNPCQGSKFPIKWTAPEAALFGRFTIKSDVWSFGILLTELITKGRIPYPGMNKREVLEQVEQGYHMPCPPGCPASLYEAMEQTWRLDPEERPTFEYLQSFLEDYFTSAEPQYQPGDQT
From the text: as §1

[10] = molecular target: 363 human kinases (including Aurora A/B/C) (Homo sapiens, UniProt P07948); conditions: LYN; for remaining activity at 0.1 µM: 100 nM; for remaining activity at 0.1 µM / remaining activity at 0.5 µM: read-out: % Enzyme Activity (relative to DMSO controls)
From the text: as §1

[11] = molecular target: 363 human kinases (including Aurora A/B/C) (Homo sapiens, UniProt P51812); conditions: RSK2; for remaining activity at 0.1 µM: 100 nM; for remaining activity at 0.1 µM / remaining activity at 0.5 µM: read-out: % Enzyme Activity (relative to DMSO controls)
From the text: as §1

[12] = molecular target: 363 human kinases (including Aurora A/B/C) (Homo sapiens, UniProt P28482); conditions: ERK2/MAPK1, [ATP] 50 µM; for remaining activity at 0.1 µM: 100 nM; for remaining activity at 0.1 µM / remaining activity at 0.5 µM: read-out: % Enzyme Activity (relative to DMSO controls)
Chain of 363 human kinases (including Aurora A/B/C) (Homo sapiens, UniProt P28482) (P28482 whole entry): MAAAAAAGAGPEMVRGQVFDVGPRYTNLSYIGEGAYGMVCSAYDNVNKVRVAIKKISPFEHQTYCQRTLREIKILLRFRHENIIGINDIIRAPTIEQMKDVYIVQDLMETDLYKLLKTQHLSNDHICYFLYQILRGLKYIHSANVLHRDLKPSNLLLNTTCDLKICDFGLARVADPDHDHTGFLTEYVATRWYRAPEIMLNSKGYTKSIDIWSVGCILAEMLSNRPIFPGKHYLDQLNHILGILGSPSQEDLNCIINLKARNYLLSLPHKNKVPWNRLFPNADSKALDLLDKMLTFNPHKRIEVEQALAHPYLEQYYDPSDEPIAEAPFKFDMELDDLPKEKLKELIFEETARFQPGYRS
From the text: as §1

[13] = molecular target: T1, 363 human kinases (including Aurora A/B/C) (Homo sapiens, UniProt Q7L7X3); conditions: TAOK1; for remaining activity at 0.1 µM: 100 nM; for remaining activity at 0.1 µM / remaining activity at 0.5 µM: read-out: % Enzyme Activity (relative to DMSO controls)
T1 sequence (Q7L7X3 1-1001): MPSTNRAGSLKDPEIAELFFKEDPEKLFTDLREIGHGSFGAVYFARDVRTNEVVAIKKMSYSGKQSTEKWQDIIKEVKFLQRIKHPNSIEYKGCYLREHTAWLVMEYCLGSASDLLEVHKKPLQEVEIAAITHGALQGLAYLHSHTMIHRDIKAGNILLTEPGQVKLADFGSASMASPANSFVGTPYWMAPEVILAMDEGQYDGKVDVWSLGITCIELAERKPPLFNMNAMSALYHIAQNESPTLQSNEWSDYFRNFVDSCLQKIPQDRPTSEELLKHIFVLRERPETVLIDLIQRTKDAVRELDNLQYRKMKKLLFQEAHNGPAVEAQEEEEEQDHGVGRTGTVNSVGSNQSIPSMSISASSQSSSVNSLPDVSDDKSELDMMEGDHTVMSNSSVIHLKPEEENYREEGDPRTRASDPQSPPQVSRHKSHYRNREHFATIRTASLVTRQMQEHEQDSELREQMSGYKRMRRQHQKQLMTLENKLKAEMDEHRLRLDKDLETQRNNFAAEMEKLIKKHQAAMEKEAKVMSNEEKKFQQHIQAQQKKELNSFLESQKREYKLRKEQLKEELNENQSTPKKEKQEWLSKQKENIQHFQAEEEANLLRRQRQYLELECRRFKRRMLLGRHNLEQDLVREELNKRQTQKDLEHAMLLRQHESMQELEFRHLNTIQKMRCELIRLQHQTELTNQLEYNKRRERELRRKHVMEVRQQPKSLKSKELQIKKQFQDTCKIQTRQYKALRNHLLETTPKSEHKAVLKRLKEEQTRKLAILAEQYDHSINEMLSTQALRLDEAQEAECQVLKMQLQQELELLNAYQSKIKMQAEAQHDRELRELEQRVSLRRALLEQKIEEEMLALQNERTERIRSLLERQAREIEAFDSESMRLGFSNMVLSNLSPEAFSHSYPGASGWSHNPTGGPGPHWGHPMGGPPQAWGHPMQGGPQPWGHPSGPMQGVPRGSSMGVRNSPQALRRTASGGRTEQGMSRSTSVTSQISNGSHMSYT
From the text: as §1

[14] = molecular target: 363 human kinases (including Aurora A/B/C) (Homo sapiens, UniProt Q96RR4); conditions: CAMKK2, [ATP] 30 µM; for remaining activity at 0.1 µM: 100 nM; for remaining activity at 0.1 µM / remaining activity at 0.5 µM: read-out: % Enzyme Activity (relative to DMSO controls)
Chain of 363 human kinases (including Aurora A/B/C) (Homo sapiens, UniProt Q96RR4) (Q96RR4 whole entry): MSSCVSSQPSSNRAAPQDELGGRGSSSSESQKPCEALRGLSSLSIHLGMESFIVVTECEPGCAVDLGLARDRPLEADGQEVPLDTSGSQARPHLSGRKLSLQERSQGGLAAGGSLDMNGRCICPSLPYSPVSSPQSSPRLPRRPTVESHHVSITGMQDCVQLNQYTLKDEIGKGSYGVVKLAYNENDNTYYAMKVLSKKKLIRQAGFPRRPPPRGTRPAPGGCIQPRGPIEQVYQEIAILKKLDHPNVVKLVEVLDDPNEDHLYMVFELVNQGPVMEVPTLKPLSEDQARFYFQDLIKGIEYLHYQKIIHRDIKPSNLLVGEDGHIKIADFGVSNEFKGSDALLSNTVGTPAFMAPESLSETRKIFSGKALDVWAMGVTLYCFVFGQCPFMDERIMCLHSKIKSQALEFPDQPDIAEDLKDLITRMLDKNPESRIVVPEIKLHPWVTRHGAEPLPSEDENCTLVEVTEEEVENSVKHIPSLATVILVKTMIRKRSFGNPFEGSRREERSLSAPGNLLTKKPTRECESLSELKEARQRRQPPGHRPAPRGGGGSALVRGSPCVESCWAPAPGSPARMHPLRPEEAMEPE
From the text: as §1

[15] = system: 363 human kinases (including Aurora A/B/C)
From the text: as §1

CCn1cc(-c2ccnc3[nH]c(-c4cccc(CN(C)C)c4)cc23)c(-c2ccc(NC(=O)N(C)C)cc2)n1 [GSK1070916]
remaining activity at 0.1 µM [1]: 95.2%
remaining activity at 0.1 µM [2]: 106%
remaining activity at 0.1 µM [3]: 95.7%
remaining activity at 0.1 µM [4]: 99.9%
remaining activity at 0.1 µM [5]: 82.3%
remaining activity at 0.1 µM [6]: 95.2%
remaining activity at 0.1 µM [7]: 75.6%
remaining activity at 0.1 µM [8]: 71.8%
remaining activity at 0.1 µM [9]: 97.8%
remaining activity at 0.1 µM [10]: 79.2%
remaining activity at 0.1 µM [11]: 107%
remaining activity at 0.1 µM [12]: 101%
remaining activity at 0.1 µM [13]: 96%
remaining activity at 0.1 µM [14]: 76.9%
Kinases inhibited ≥65% of control ([15]; 100 nM, 363 human kinases, [ATP] ~ Km(ATP)): Aurora A and B as well as DDR1

O=C(O)[C@]1(Cc2cccc(Nc3nccs3)n2)CC[C@@H](Oc2cccc(Cl)c2F)CC1 [MK-5108]
remaining activity at 0.1 µM [1]: 49.8%
remaining activity at 0.5 µM ([1]; 500 nM): 15.2%
remaining activity at 0.1 µM [2]: 93.8%
remaining activity at 0.5 µM ([2]; 500 nM): 62.2%
remaining activity at 0.1 µM [3]: 99.6%
remaining activity at 0.5 µM ([3]; 500 nM): 97.8%
remaining activity at 0.1 µM [4]: 41%
remaining activity at 0.5 µM ([4]; 500 nM): 19.8%
remaining activity at 0.1 µM [5]: 93.7%
remaining activity at 0.5 µM ([5]; 500 nM): 63%
remaining activity at 0.1 µM [6]: 101%
remaining activity at 0.5 µM ([6]; 500 nM): 89.7%
remaining activity at 0.1 µM [7]: 23.5%
remaining activity at 0.5 µM ([7]; 500 nM): 5.55%
remaining activity at 0.1 µM [8]: 99.6%
remaining activity at 0.5 µM ([8]; 500 nM): 98.2%
remaining activity at 0.1 µM [9]: 22.9%
remaining activity at 0.5 µM ([9]; 500 nM): 6.36%
remaining activity at 0.1 µM [10]: 76.9%
remaining activity at 0.5 µM ([10]; 500 nM): 45.6%
remaining activity at 0.1 µM [11]: 101%
remaining activity at 0.5 µM ([11]; 500 nM): 99.5%
remaining activity at 0.1 µM [12]: 98.4%
remaining activity at 0.5 µM ([12]; 500 nM): 106%
remaining activity at 0.1 µM [13]: 89.5%
remaining activity at 0.5 µM ([13]; 500 nM): 70.3%
remaining activity at 0.1 µM [14]: 111%
remaining activity at 0.5 µM ([14]; 500 nM): 87.7%
Number of kinases inhibited at >65% of control [15]: 75 kinases
Number of kinases inhibited at >65% of control (including the Aurora kinases) [15]: 32 kinases

O=C(c1cccc(Cl)c1F)N1CCN(Cc2cccc(Nc3nccs3)n2)CC1 [MK-8745]
% Enzyme Activity (relative to DMSO controls) ([1]; 500 nM): 58.97%
remaining activity at 0.5 µM ([1]; 500 nM): 60.2%
% Enzyme Activity (relative to DMSO controls) ([2]; 500 nM): 94.49%
remaining activity at 0.5 µM ([2]; 500 nM): 96%
% Enzyme Activity (relative to DMSO controls) ([3]; 500 nM): 96.64%
remaining activity at 0.5 µM ([3]; 500 nM): 98.4%
% Enzyme Activity (relative to DMSO controls) ([4]; 500 nM): 94.09%
remaining activity at 0.5 µM ([4]; 500 nM): 98.1%
% Enzyme Activity (relative to DMSO controls) ([5]; 500 nM): 90.37%
remaining activity at 0.5 µM ([5]; 500 nM): 91.9%
% Enzyme Activity (relative to DMSO controls) ([6]; 500 nM): 96.48%
remaining activity at 0.5 µM ([6]; 500 nM): 99.9%
% Enzyme Activity (relative to DMSO controls) ([7]; 500 nM): 79.50%
remaining activity at 0.5 µM ([7]; 500 nM): 79.9%
% Enzyme Activity (relative to DMSO controls) ([8]; 500 nM): 91.55%
remaining activity at 0.5 µM ([8]; 500 nM): 92.6%
% Enzyme Activity (relative to DMSO controls) ([9]; 500 nM): 35.97%
remaining activity at 0.5 µM ([9]; 500 nM): 36.3%
% Enzyme Activity (relative to DMSO controls) ([10]; 500 nM): 64.18%
remaining activity at 0.5 µM ([10]; 500 nM): 65.1%
% Enzyme Activity (relative to DMSO controls) ([11]; 500 nM): 101.95%
remaining activity at 0.5 µM ([11]; 500 nM): 105%
% Enzyme Activity (relative to DMSO controls) ([12]; 500 nM): 103.36%
remaining activity at 0.5 µM ([12]; 500 nM): 104%
% Enzyme Activity (relative to DMSO controls) ([13]; 500 nM): 88.72%
remaining activity at 0.5 µM ([13]; 500 nM): 89.7%
% Enzyme Activity (relative to DMSO controls) ([14]; 500 nM): 199.08%
remaining activity at 0.5 µM ([14]; 500 nM): 204%
Kinases inhibited at >65% of control ([15]; 500 nM): Aurora A, AXL, BRK, DDR1, EphA6, GSK3α/β, IRAK1, JNK1, LKB1, ROS1, Trk A/B/C, TYRO3, YES
Number of kinases inhibited at >65% of control ([15]; 500 nM): 16 kinases
% Enzyme Activity (relative to DMSO controls) ([15]; LYN B, 500 nM): 85.04% and 84.52%
% Enzyme Activity (relative to DMSO controls) ([15]; PKCb2, 500 nM): 98.11% and 97.15%
% Enzyme Activity (relative to DMSO controls) ([15]; PKG1b, 500 nM): 109.42% and 102.59%
